Measurements published in patent publication US20250099431A1, “GLP-1R MODULATING COMPOUNDS” (priority 2020, published 2025).

Assays:
[1] = Microsomal stability (liver microsomal assay, mixed cofactors); predicted hepatic clearance; format: in vitro ADME; settings: liver microsomes 1.0 mg protein/mL (+UDPGA +NADPH), 1 μM analyte, 37° C.; scaled with human liver weight and hepatic blood flow 1.3 L/hr/kg
Procedure: Metabolic stability of compounds was assessed using human or rat liver microsomal assays (Corning). In these assays, 10 nL of each analyte at a concentration of 1 mM in 100% DMSO was dispensed into a well of a polypropylene plates using the Echo 550 acoustic liquid dispenser (Labcyte®). Each plate contained 384 wells with a single analyte in each well.
A solution of human (Corning® Gentest™ Human Mixed Pooled Microsomes or rat (Corning® Gentest™ Rat [Sprague-Dawley] Pooled Liver Microsomes) liver microsomes at 2 mg/ml in 100 mM K2HPO4/KH2PO4 at pH 7. 4 was combined with alamethicin from Trichoderma viride (Sigma-Aldrich) 0.0225 mg/ml. The mixture was incubated on ice for 15 minutes. 5 μL of this mixture was added to individual wells following a 15 minute incubation at room temperature and supplemented with 5 μL NADPH Regenerating Solution of cofactors (Corning® Gentest™ UGT Reaction Mix) containing 100 mM K2HPO4/KH2PO4 at pH 7.4, 2.6 mM NADP+, 6.6 mM glucose-6-phosphate, 6.6 mM MgCl2, 0.8 U/mL glucose-6-phosphate dehydrogenase, 0.1 mM sodium citrate, and 6.8 mM uridine diphosphate-glucuronic acid. The final concentration of each analyte compound at the beginning of the reaction was 1 μM. The reactions were incubated at 37° C. and samples were collected at time points of 0, 5, 15, 30, 40, 50, 60, and 70 minutes for further analysis. Background data were collected using reactions without analyte compounds.
Upon collection of the sample time points, samples were quenched with 30 μL of a solution of 72% acetonitrile, 8% methanol, 0.1% formic acid, 19.9% water, and internal standard (IS). Reaction plates were spun in a centrifuge at speed of 4,000 rcf for 30 minutes at 4° C., following a dilution of the 10 μL quenched reaction into 40 μL de-ionized water, yielding assay plates.
Assay plates were analyzed using solid-state extraction coupled with quadrupole time-of-flight mass spectrometer, using Agilent QToF 6530 RapidFire 360 system, with C4 type A solid state cartridges. Analysis was performed in either positive or negative ionization modes. Mobile phases contained 0.1% formic acid in water for loading analytes onto solid state extraction cartridges and 0.1% formic acid in acetonitrile for elution into a mass spectrometer in positive ionization mode, or 0.1% acetic acid in water for loading and 0.1% acetic acid in acetonitrile for extraction in negative ionization mode. Peak-area ratios of integrated counts for individual compounds to IS were plotted as semi-logarithmic chart of log vs time. The initial linear portion of decay was fitted to a linear regression equation to derive the half-time of analyte decay.
Pharmacological parameters for an analyte compound metabolism were calculated using the following equations: […]
wherein concentration refers to the protein concentration (mg/ml) in the reaction.
This scales the in vitro intrinsic clearance up to the value that would be predicted for the entire mass of liver tissue (but with no restriction by blood flow). The value depends upon the size of the liver (species-dependent) and the yield of microsomal protein as appropriate (assumed to be species-independent).
Hepatic clearance will depend upon the inter-relationship of intrinsic clearance and hepatic blood flow and was predicted from in vitro data using a variety of approaches.
The hepatic extraction is reported as the predicted clearance expressed as a proportion of hepatic blood flow.

[2] = target: GLP-1R (Homo sapiens (Human), UniProt P43220); experiment: GLP-1R activation: cAMP increase in CHO cells stably expressing GLP-1R; format: cell-based; settings: cAMP increase, 10 point dose response, 30 minutes incubation at 37° C., read-out: EC50
Procedure: GLP-1R activation by a compound of the present disclosure was quantified by measuring cAMP increase in CHO cells stably expressing GLP-1R (MultiSpan product #C1267-1a). […] The cells were then incubated overnight at 37° C., 5% CO2. […] 1% BSA (Rockland Immunochemicals product #BSA-1000)). Following the medium change, the cells were incubated for 1 hour at 37° C., 5% CO2. The tested GLP-1 compound was added to the cells in a 10 point dose response followed by a 30 minutes incubation at 37° C., 5% CO2. cAMP concentration increase was then detected using Cisbio's cAMP Gs Dynamic Kit (product #62AM4PEC) according to the manufacturer's protocol. The response was plotted against the log of the agonist concentration and fitted to a sigmoidal equation to determine the EC50.

Chain of GLP-1R (P43220 24-463): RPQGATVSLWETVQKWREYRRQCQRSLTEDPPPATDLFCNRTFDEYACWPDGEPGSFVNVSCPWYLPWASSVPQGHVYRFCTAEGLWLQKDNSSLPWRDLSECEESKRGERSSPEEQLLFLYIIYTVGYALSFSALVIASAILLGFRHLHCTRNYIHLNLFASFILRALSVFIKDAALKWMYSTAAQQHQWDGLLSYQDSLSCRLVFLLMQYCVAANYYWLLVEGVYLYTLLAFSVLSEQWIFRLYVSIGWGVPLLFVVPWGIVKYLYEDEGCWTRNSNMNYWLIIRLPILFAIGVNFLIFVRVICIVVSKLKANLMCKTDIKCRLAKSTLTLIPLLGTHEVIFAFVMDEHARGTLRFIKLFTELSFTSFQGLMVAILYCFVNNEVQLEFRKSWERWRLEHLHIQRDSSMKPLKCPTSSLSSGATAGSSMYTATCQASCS

Row | SMILES | Predicted Hepatic Clearance (Pred. Cl.) [1] | EC50 [2]
1 | CC1(c2ccc(Cl)cc2F)Oc2cccc(-c3cc(F)c(Cc4nc5ccc(C(=O)O)cc5n4C[C@@H]4CCO4)c(F)c3F)c2O1 (stereo partly drawn) [Example 20, 2-(4-(2-(4-chloro-2-fluorophenyl)-2-methylbenzo[d][1, 3]dioxol-4-yl)-2,3,6-trifluorobenzyl)-1-(((S)-oxetan-2-yl)methyl)-1H-benzo[d]imidazole-6-carboxylic acid] | 2.5 mL/min/kg | 0.089 nM
2 | CC1(c2ccc(Cl)cc2F)Oc2cccc(-c3ccc(Cc4nc5ccc(C(=O)O)cc5n4C[C@@H]4CCO4)cc3F)c2O1 (stereo partly drawn) [Example 15, 2-(4-(2-(4-chloro-2-fluorophenyl)-2-methylbenzo[d][1, 3]dioxol-4-yl)-3-fluorobenzyl)-1-(((S)-oxetan-2-yl)methyl)-1H-benzo[d]imidazole-6-carboxylic acid] | 4.5 mL/min/kg | 0.015 nM
3 | CC(=O)N1CC[C@@H]1Cn1c(Cc2ccc(-c3cccc4c3OC(C)(c3ccc(Cl)cc3F)O4)cc2F)nc2ccc(C(=O)O)cc21 (stereo partly drawn) [Example 108, 3-[[(2R)-1-acetylazetidin-2-yl]methyl]-2-[[4-[2-(4-chloro-2-fluoro-phenyl)-2-methyl-1,3-benzodioxol-4-yl]-2-fluoro-phenyl]methyl] benzimidazole-5-carboxylic acid] | 2 mL/min/kg | 4.3 nM
4 | CC1(c2ccc(Cl)cc2F)Oc2cccc(-c3ccc(Cc4nc5ccc(C(=O)O)cc5n4CC4(n5ccnn5)CC4)c(F)c3)c2O1 (stereo not shown) [Example 109, 1-((1-(1H-1,2,3-triazol-1-yl)cyclopropyl)methyl)-2-(4-(2-(4-chloro-2-fluorophenyl)-2-methylbenzo[d][1, 3]dioxol-4-yl)-2-fluorobenzyl)-1H-benzo[d]imidazole-6-carboxylic acid] | 2.5 mL/min/kg | 9.1 nM
5 | O=C(O)c1ccc2nc(Cc3c(F)cc(-c4cccc5c4CN(c4ccc(Cl)cc4F)C5)cc3F)n(C[C@@H]3CCO3)c2c1 [Example 71, (S)-2-(4-(2-(4-chloro-2-fluorophenyl)isoindolin-4-yl)-2,6-difluorobenzyl)-1-(oxetan-2-ylmethyl)-1H-benzo[d]imidazole-6-carboxylic acid] | 3.83 mL/min/kg | 10000 nM
6 | CC1(c2ccc(Cl)cc2F)Oc2cccc(-c3cc(F)c(Cc4nc5ccc(C(=O)O)cc5n4C[C@@H]4CCO4)cc3F)c2O1 (single isomer, unassigned) [Example 43] | 4.67 mL/min/kg | 7.4 nM
7 | COCCn1c(Cc2c(F)cc(-c3cccc4c3OC3(c5ccc(Cl)cc5)CCC(=O)N43)cc2F)nc2ccc(C(=O)O)cc21 (stereo not shown) [Example 17, 2-(4-(3a-(4-chlorophenyl)-1-oxo-1,2,3,3a-tetrahydrobenzo[d]pyrrolo[2,1-b]oxazol-5-yl)-2,6-difluorobenzyl)-1-(2-methoxyethyl)-1H-benzo[d]imidazole-6-carboxylic acid] | 7.33 mL/min/kg | 10000 nM
8 | COCCn1c(Cc2c(F)cc(-c3cccc4c3OC(C)(c3ccc(C#N)cn3)O4)cc2F)nc2ccc(C(=O)O)cc21 (stereo not shown) [Example 66, 2-(4-(2-(5-cyanopyridin-2-yl)-2-methylbenzo[d][1, 3]dioxol-4-yl)-2,6-difluorobenzyl)-1-(2-methoxyethyl)-1H-benzo[d]imidazole-6-carboxylic acid] | 7.17 mL/min/kg | 21 nM
9 | COCCn1c(Cc2c(F)cc(-c3cccc4c3OC(C)(c3ccc(C#N)cc3F)O4)cc2F)nc2ccc(C(=O)O)cc21 (stereo not shown) [Example 89, 2-(4-(2-(4-cyano-2-fluorophenyl)-2-methylbenzo[d][1, 3]dioxol-4-yl)-2,6-difluorobenzyl)-1-(2-methoxyethyl)-1H-benzo[d]imidazole-6-carboxylic acid] | 6.17 mL/min/kg | 15 nM
10 | COCCn1c(Cc2ccc(-c3cccc4c3OC(C)(c3nc5ccccc5n3C)O4)cc2F)nc2ccc(C(=O)O)cc21 (stereo not shown) [Example 52, 2-[[2-fluoro-4-[2-methyl-2-(1-methylbenzimidazol-2-yl)-1,3-benzodioxol-4-yl]phenyl]methyl]-3-(2-methoxyethyl) benzimidazole-5-carboxylic acid] | 17.8 mL/min/kg | 2270 nM
11 | COCCn1c(Cc2ccc(-c3cccc4c3OC(c3ccccc3)O4)cc2F)nc2ccc(C(=O)O)cc21 (single isomer, unassigned) [Example 36, 2-(2-fluoro-4-(2-phenylbenzo[d][1, 3]dioxol-4-yl)benzyl)-1-(2-methoxyethyl)-1H-benzo[d]imidazole-6-carboxylic acid] | 8.67 mL/min/kg | 242 nM
12 | COCCn1c(Cc2c(F)cc(-c3cccc4c3OC(c3ccc(C#N)cc3F)O4)cc2F)nc2ccc(C(=O)O)cc21 (stereo not shown) [Example 5, 2-(4-(2-(4-cyano-2-fluorophenyl)benzo[d][1, 3]dioxol-4-yl)-2,6-difluorobenzyl)-1-(2-methoxyethyl)-1H-benzo[d]imidazole-6-carboxylic acid] | <1.83 mL/min/kg | 161 nM
13 | COCCn1c(Cc2c(F)cc(-c3cccc4c3OC(C)(c3ccc(C#N)cc3F)O4)c(F)c2F)nc2ccc(C(=O)O)cc21 (stereo not shown) [Example 88, 2-(4-(2-(4-cyano-2-fluorophenyl)-2-methylbenzo[d][1, 3]dioxol-4-yl)-2,3,6-trifluorobenzyl)-1-(2-methoxyethyl)-1H-benzo[d]imidazole-6-carboxylic acid] | 8 mL/min/kg | 12 nM
14 | COCCn1c(Cc2c(F)cc(-c3cccc4c3OC(C)(c3ccc(Cl)cc3OC)O4)cc2F)nc2ccc(C(=O)O)cc21 (stereo not shown) [Example 60, 2-(4-(2-(4-chloro-2-methoxyphenyl)-2-methylbenzo[d][1, 3]dioxol-4-yl)-2,6-difluorobenzyl)-1-(2-methoxyethyl)-1H-benzo[d]imidazole-6-carboxylic acid] | 3.5 mL/min/kg | 3.8 nM
15 | CC1(c2ccc(C#N)cc2F)Oc2cccc(-c3cc(F)c(Cc4nc5ccc(C(=O)O)cc5n4C[C@@H]4CCO4)c(F)c3)c2O1 (single isomer, unassigned) [Example 92] | 2.67 mL/min/kg | 3.3 nM
16 | CC1(c2ccc(Cl)cc2F)Oc2cccc(-c3cc(F)c(Cc4nc5c(F)cc(C(=O)O)cc5n4CC4(CC(N)=O)CC4)c(F)c3)c2O1 (stereo not shown) [Example 9, 1-((1-(2-amino-2-oxoethyl)cyclopro-pyl)methyl)-2-(4-(2-(4-chloro-2-fluorophenyl)-2-methylbenzo[d][1, 3]dioxol-4-yl)-2,6-difluorobenzyl)-4-fluoro-1H-benzo[d]imidazole-6-carboxylic acid] | 2.5 mL/min/kg | 8.6 nM
17 | CC1(c2ccc(C#N)cc2F)Oc2cccc(-c3cc(F)c(Cc4nc5ccc(C(=O)O)cc5n4C[C@@H]4CCO4)c(F)c3F)c2O1 (stereo partly drawn) [Example 90, 2-(4-(2-(4-cyano-2-fluorophenyl)-2-methylbenzo[d][1, 3]dioxol-4-yl)-2,3,6-trifluorobenzyl)-1-(((S)-oxetan-2-yl)methyl)-1H-benzo[d]imidazole-6-carboxylic acid] | 4.67 mL/min/kg | 0.23 nM
